Measured values as given in patent US20250101026A1, “Functionalized Allopurinol Derivatives for Treatment of Alzheimer’s Disease” (BOARD OF REGENTS OF THE UNIVERSITY OF NEBRASKA, priority 2022, published 2025).
“Also recorded” adds a separate entry of the source. Read-outs that look alike come from different tables or passages of the source.

What was measured:
Aβ-ABAD PPI = target: T1, Aβ-ABAD PPI (Homo sapiens, UniProt Q99714); experiment: Estradiol ELISA assay: rescue of Aβ-induced reduction of estradiol levels in SH-SY5Y cells; assay type: cell-based; conditions: compounds 24 hours then Aβ 72 hours
T1 construct: wildtype human SH-SY5Y cell lines, which are known to express ABAD; endogenous in cells; host or cells: SH-SY5Y
T1 sequence (Q99714 2-261 limits assumed): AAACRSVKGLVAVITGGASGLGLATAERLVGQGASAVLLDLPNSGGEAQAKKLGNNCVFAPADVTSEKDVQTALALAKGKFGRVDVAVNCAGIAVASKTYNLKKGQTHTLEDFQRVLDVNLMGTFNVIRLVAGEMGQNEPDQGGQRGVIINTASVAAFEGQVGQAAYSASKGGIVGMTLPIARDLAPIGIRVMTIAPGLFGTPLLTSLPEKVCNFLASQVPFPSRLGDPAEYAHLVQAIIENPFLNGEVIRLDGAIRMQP
Protocol: Cell Culture. The cell line SH-SY5Y was cultured in DMEM/F12 media supplemented with 10% fetal bovine serum, 1% penicillin-streptomycin and maintained as monolayer cultures in a humidified atmosphere containing 5% CO2 at 37° C.^42 All cell lines were authenticated via short tandem repeat analysis and tested for mycoplasma using the a commercial mycoplasma detection kit as per the manufacturer's instructions, showing no contamination. Where indicated, cells were also cultured in DMEM/low glucose media. All compounds were diluted to 20 mM solution in DMSO and were serially diluted in cell culture media for cell treatments to a final concentration range of 0.01 to 100 μM, maintaining the final DMSO concentration at less than 1%. Positive control compound HupA was serially diluted in a similar fashion as the synthesized compounds.
Amyloid Preparation. The peptide Aβ1-42, referred to as “Aβ”, was obtained from a commercial source. The oligomers of Aβ were prepared using an established method,^43 Aβ peptide was resuspended in 0.5 mM NaOH at a concentration of […] and stored at −80° C. For use in cell cultures, the stock solution was incubated at 37° C. for 5-7 days. Before use, the peptide was diluted to 25 μM in DMEM/low glucose media.
Estradiol ELISA assay. SH-SY5Y cells were treated with compounds (24 hours), followed by Aβ (72 hours) in a similar fashion to that employed in the cell viability assays, the cell culture medium was collected, and cells were lysed using RIPA buffer and protease inhibitor cocktail, then proteins were quantified via BCA assay. An estradiol assay was performed. In brief, the plate was loaded with samples, along with the estradiol tracer and the specific antiserum to estradiol and incubated for one hour at room temperature. After five washing steps, Ellman's Reagent was added, and the plate developed for 60 minutes with gentle shaking at room temperature. The calculated estradiol concentration was normalized to the total protein content of the samples.
Statistical Analyses. The IC50 values of each compound were acquired from a single experiment with each inhibitor concentration run in triplicate and the statistical significance was calculated using the Student t test, or a one-way or two-way ANOVA. A P value of <0.05 was considered statistically significant. IC50 values were calculated.
To determine the effect of Aβ on estradiol production, and ABAD's role in this process, wildtype human SH-SY5Y cell lines, which are known to express ABAD, were incubated for 72 hours with Aβ.^20 Estradiol levels in the cell lysate were measured with a commercial ELISA-based estradiol assay. […] To determine if AG18051 treatment affects Aβ-induced reduction of estradiol levels, 0.1 or 1 μM AG18051 was preincubated in SH-SY5Y cells for 24 hours prior to Aβ exposure. […] AG18051 at 1 μM protected SH-SY5Y cells from Aβ-induced reduction of estradiol production to a greater significance than HupA. This confirms literature reports that AG18051 is neuroprotective and that it exerts this effect by ameliorating Aβ-induced reduction of estradiol production by ABAD.^20, 23
This assay methodology allows direct screening of compound activity in the presence of Aβ and provides direct evidence of the ability of compounds to rescue Aβ-induced reduction of estradiol production by ABAD. To measure the effect of AG18051 alone in SH-SY5Y cell lines, a 0.01-100 μM dose-response range was tested, and their effect on estradiol levels (FIG. 2B). […] To evaluate the effect of the increase of AG18051 dose in maintaining estradiol levels reduced by Aβ, AG18051 was tested in increasing concentrations in the presence of Aβ (FIG. 2B).

SH-SY5Y cells = experiment: Mitochondrial Stress Test in Aβ-treated SH-SY5Y cells (extracellular flux analyzer); assay type: cell-based, human
Protocol: Mitochondrial Stress Test. […] After 48 hours, media was replaced with assay medium consisting of XF Base Medium supplemented with 10 mM glucose, 10 mM pyruvic acid, and 1 mM L-glutamine. Subsequently, the analysis of mitochondrial oxygen consumption rate (OCR) was performed in a flux analyzer. The OCR values were obtained both during baseline (prior to addition of any Mito Stress Test substances), and after the addition of […], 2 μM FCCP and 0.5 μM rotenone+0.5 μM antimycin A, respectively. Prior to analysis, data were corrected by withdrawing non-mitochondrial respiration (measured after the injection of rotenone and antimycin A) from all measured OCR values. After the experiment, cells were lysed using RIPA buffer and protease inhibitor cocktail, then proteins were quantified via BCA assay. Results were normalized to protein concentration of each well to its OCR value.

IC50 (Aβ-ABAD PPI; amelioration of Aβ-induced reduction of estradiol levels, read-out: IC50 (estradiol assay)): 0.74 µM
IC50 (Aβ-ABAD PPI; read-out: IC50 (estradiol assay), unit inferred): 0.738 ± 0.105 µM
Compound: O=C(C(c1ccccc1)n1cnc2[nH]ncc2c1=S)N1CCC(O)CC1 (centres unmarked) [Compound 14b, 1-(4-hydroxypiperidin-1-yl)-2-phenyl-2-(4-thioxo-1,4-dihydro-5H-pyrazolo[3,4-d]pyrimidin-5-yl)ethan-1-one]
basal respiration: restored share of the cell respiration reduced by Aβ (SH-SY5Y cells; 1 μM pretreatment 24 hrs, then 25 μM Aβ 48 hrs): 46%
proton leak, ATP production and maximal respiration: restoration of mitochondrial function lost by Aβ (SH-SY5Y cells; 1 μM pretreatment, then 25 μM Aβ): trend to restore; also recorded: trend to rescue
basal respiration, rescue of Aβ-mediated dysfunction (SH-SY5Y cells; SH-SY5Y cells): significantly rescuing
